Drawing on patent US20260217677A1, “ORGANIC COMPOUNDS AS NLRP3 INHIBITORS” (KODIAK SCIENCES, INC., priority 2023, published 2026), this text covers IC50 for 30 molecules.

Some results are limits rather than exact numbers.

One test concerns IL-1β release in U937 cells after NLRP3 activation. As to the kind of experiment: IL-1β release inhibition in U937 cells (MSD V-Plex). As to conditions: Homo sapiens, U-937, read-out: IL-1β IC50, Table 3; PMA-differentiated U937 cells, 1 μg/mL LPS 3 h, compound 30 min, 10 mM nigericin 1 h.
For orientation: IC50 means the concentration that gives 50% inhibition. With `Cc1cc(N[C@@H]2CCCN(CC(=O)N3CCC(CO)CC3)C2)nnc1-c1ccc(C(F)(F)F)cc1O` [Example 58, (R)-2-(3-((6-(2-Hydroxy-4-(trifluoromethyl)phenyl)-5-methylpyridazin-3-yl)amino)piperidin-1-yl)-1-(4-(hydroxymethyl)piperidin-1-yl)ethan-1-one], the IC50 fell in the range of 5 to 50 nM.

On to `O=C(CN1CCC[C@@H](Nc2nnc(-c3ccc4sccc4c3O)c3c2COC3)C1)N1CCC(O)CC1` [Example 56, (R)-2-(3-((4-(4-Hydroxybenzo[b]thiophen-5-yl)-5,7-dihydrofuro[3,4-d]pyridazin-1-yl)amino)piperidin-1-yl)-1-(4-hydroxypiperidin-1-yl)ethan-1-one], for which the IC50 lay within 5 to 50 nM.

Turning to `Cc1c(-c2ccc(C(F)(F)F)cc2O)nnc2c1CCCN2[C@@H]1CCCN(C2CCN([C@H]3C[C@@H](O)C3)CC2)C1` [Example 45, 2-{4-Methyl-8-[(3R)-1′-[(1s,3s)-3-hydroxycyclobutyl]-[1,4′-bipiperidin]-3-yl]-5H,6H,7H-pyrido[2,3-c]pyridazin-3-yl}-5-(trifluoromethyl)phenol], the IC50 is 50 to 500 nM.

Take `Cc1cc(N[C@@H]2CCCN(C3CCC(O)CC3)C2)nnc1-c1ccc(C(F)(F)F)cc1O` (single isomer, unassigned) [Example 53]: the IC50 was less than 5 nM.

Consider `Cc1cc(N[C@@H]2CCCN(C3CCN(C(=O)N4CCC(O)CC4)CC3)C2)nnc1-c1ccc(C(F)(F)F)cc1O` [Example 41, (R)-(3-((6-(2-Hydroxy-4-(trifluoromethyl)phenyl)-5-methylpyridazin-3-yl)amino)-[1,4′-bipiperidin]-1′-yl) (4-hydroxypiperidin-1-yl)methanone], for which the IC50 fell in the range of 5 to 50 nM.

As to `O=C(CN1CCC[C@@H](Nc2nnc(-c3ccc(C(F)(F)F)cc3O)c3c2COC3)C1)N1CC[C@@H](O)C1` [Example 27, 2-((R)-3-((4-(2-hydroxy-4-(trifluoromethyl)phenyl)-5,7-dihydrofuro[3,4-d]pyridazin-1-yl)amino)piperidin-1-yl)-1-((R)-3-hydroxypyrrolidin-1-yl) ethan-1-one], the 50% inhibitory concentration (IC50) is 5 to 50 nM.

With `Cc1c(N[C@@H]2CCCN(CC34CC(O)(C3)C4)C2)nnc(-c2ccc(C(F)(F)F)cc2O)c1C` [Example 68, (R)-3-((3-((6-(2-Hydroxy-4-(trifluoromethyl)phenyl)-4,5-dimethylpyridazin-3-yl)amino)piperidin-1-yl)methyl) bicyclo[1.1.1]pentan-1-ol], the IC50 lay in the range of 5 to 50 nM.

For the molecule `Cc1cc(N[C@@H]2CCCN(C(=O)C3CCCC(O)C3)C2)nnc1-c1ccc(C(F)(F)F)cc1O` (single isomer, unassigned) [Example 70 Fraction A], the IC50 lay within 5 to 50 nM.

Consider `Cc1cc(N[C@@H]2CCCN(CC(=O)N3CC4(CC(O)C4)C3)C2)nnc1-c1ccc(C(F)(F)F)cc1O` [Compound 16, (R)-2-(3-((6-(2-Hydroxy-4-(trifluoromethyl)phenyl)-5-methylpyridazin-3-yl)amino)piperidin-1-yl)-1-(6-hydroxy-2-azaspiro[3.3]heptan-2-yl)ethan-1-one], for which the half-inhibitory concentration (IC50) lay in the range of 5 to 50 nM.

As for `Cc1cc(N[C@@H]2CCCN(CC3CC(O)C3)C2)nnc1-c1ccc2sccc2c1O` (stereo partly drawn) [Example 52, 5-(6-(((R)-1-(((1r,3R)-3-Hydroxycyclobutyl)methyl)piperidin-3-yl)amino)-4-methylpyridazin-3-yl)benzo[b]thiophen-4-ol], the half-inhibitory concentration (IC50) was less than 5 nM.

Regarding `Cc1cc(N[C@@H]2CCCN(CCN3CC[C@H](O)C3)C2)nnc1-c1ccc(C(F)(F)F)cc1O` [Compound 4, (S)-1-(2-((R)-3-((6-(2-Hydroxy-4-(trifluoromethyl)phenyl)-5-methylpyridazin-3-yl)amino)piperidin-1-yl)ethyl)pyrrolidin-3-ol], the concentration for half-maximal inhibition (IC50) is greater than 500 nM.

Take `O=C(CN1CCC[C@@H](Nc2nnc(-c3ccc(C(F)(F)F)cc3O)c3c2COC3)C1)N1CCC(O)CC1` [Compound 23, (R)-2-(3-((4-(2-Hydroxy-4-(trifluoromethyl)phenyl)-5,7-dihydrofuro[3,4-d]pyridazin-1-yl)amino)piperidin-1-yl)-1-(4-hydroxypiperidin-1-yl)ethan-1-one]: the IC50 was less than 5 nM.

For `Cc1cc(N[C@@H]2CCCN(C[C@H]3C[C@@H](O)C3)C2)nnc1-c1ccc2sccc2c1O` [Example 51, 5-(6-(((R)-1-(((1s,3S)-3-Hydroxycyclobutyl)methyl)piperidin-3-yl)amino)-4-methylpyridazin-3-yl)benzo[b]thiophen-4-ol], the IC50 was less than 5 nM.

With `Cc1c(N[C@@H]2CCCN(CC(=O)N3CCC(O)CC3)C2)nnc(-c2ccc3sccc3c2O)c1C` [Example 50, (R)-2-(3-((6-(4-Hydroxybenzo[b]thiophen-5-yl)-4,5-dimethylpyridazin-3-yl)amino)piperidin-1-yl)-1-(4-hydroxypiperidin-1-yl)ethan-1-one], the IC50 is less than 5 nM.

For the molecule `Cc1cc(N[C@@H]2CCCN(CCN3CC(O)C3)C2)nnc1-c1ccc(C(F)(F)F)cc1O` [Example 37, (R)-1-(2-(3-((6-(2-Hydroxy-4-(trifluoromethyl)phenyl)-5-methylpyridazin-3-yl)amino)piperidin-1-yl)ethyl)azetidin-3-ol], the half-inhibitory concentration (IC50) lay in the range of 5 to 50 nM.

With `Cc1c(-c2ccc(C(F)(F)F)cc2O)nnc2c1CCCN2[C@@H]1CCCN(C2CCN(C3CC(O)C3)CC2)C1` (stereo partly drawn) [Example 44, 2-{8-[(3R)-1′-(3-Hydroxycyclobutyl)-[1,4′-bipiperidin]-3-yl]-4-methyl-5H,6H,7H-pyrido[2,3-c]pyridazin-3-yl}-5-(trifluoromethyl)phenol], the IC50 fell in the range of 50 to 500 nM.

With `Cc1cc(N[C@@H]2CCCN(CC(=O)N3CC(C)(CO)C3)C2)nnc1-c1ccc(C(F)(F)F)cc1O` [Example 48, (R)-2-(3-((6-(2-Hydroxy-4-(trifluoromethyl)phenyl)-5-methylpyridazin-3-yl)amino)piperidin-1-yl)-1-(3-(hydroxymethyl)-3-methylazetidin-1-yl)ethan-1-one], the half-inhibitory concentration (IC50) was in the range of 5 to 50 nM.

As for `Cc1cc(N[C@@H]2CCCN(CCN3CC[C@@H](O)C3)C2)nnc1-c1ccc(C(F)(F)F)cc1O` [Compound 3, (R)-1-(2-((R)-3-((6-(2-Hydroxy-4-(trifluoromethyl)phenyl)-5-methylpyridazin-3-yl)amino)piperidin-1-yl)ethyl)pyrrolidin-3-ol], the IC50 is greater than 500 nM.

Take `Cc1cc(N[C@@H]2CCCN(CC(=O)N3CCC(O)CC3)C2)nnc1-c1ccc2sccc2c1O` [Example 49, 2-[(3R)-3-{[6-(4-hydroxy-1-benzothiophen-5-yl)-5-methylpyridazin-3-yl]amino}piperidin-1-yl]-1-(4-hydroxypiperidin-1-yl)ethanone]: the 50% inhibitory concentration (IC50) was less than 5 nM.

Regarding `Cc1cc(-c2ccc(C(F)(F)F)cc2O)nnc1N[C@@H]1CCCN(CC(=O)N2CC[C@@H](O)C2)C1` [Example 32, 2-((R)-3-((6-(2-Hydroxy-4-(trifluoromethyl)phenyl)-4-methylpyridazin-3-yl)amino)piperidin-1-yl)-1-((R)-3-hydroxypyrrolidin-1-yl)ethan-1-one], the concentration for half-maximal inhibition (IC50) was in the range of 5 to 50 nM.

Still in this test, the particulars now being: Homo sapiens, U-937, read-out: IL-1β IC50, Table 4; PMA-differentiated U937 cells, 1 μg/mL LPS 3 h, compound 30 min, 10 mM nigericin 1 h.
As to `Cc1cc(N[C@@H]2CCCN(C[C@@H]3CCCN3)C2)nnc1-c1ccc(C(F)(F)F)cc1O` [Example 106, 2-(4-Methyl-6-(((R)-1-(((S)-pyrrolidin-2-yl)methyl)piperidin-3-yl)amino)pyridazin-3-yl)-5-(trifluoromethyl)phenol], the IC50 was 5 to 50 nM.

As for `Cc1cc(N[C@@H]2CCCN(C(=O)CN)C2)nnc1-c1ccc(C(F)(F)F)cc1O` [Example 92, (R)-2-Amino-1-(3-((6-(2-hydroxy-4-(trifluoromethyl)phenyl)-5-methylpyridazin-3-yl)amino)piperidin-1-yl)ethan-1-one], the concentration for half-maximal inhibition (IC50) lay in the range of 5 to 50 nM.

For the molecule `Cc1cc(N[C@@H]2CCCN(C3CCNCC3)C2)nnc1-c1ccc(C(F)(F)F)cc1O` [Example 85, (R)-2-(6-([1,4′-Bipiperidin]-3-ylamino)-4-methylpyridazin-3-yl)-5-(trifluoromethyl)phenol], the IC50 is 5 to 50 nM.

For `Cc1cc(C(F)(F)F)cc(O)c1-c1ccc(N[C@@H]2CCCN(C3CNC3)C2)nn1` [Example 88, (R)-2-(6-((1-(Azetidin-3-yl)piperidin-3-yl)amino)pyridazin-3-yl)-3-methyl-5-(trifluoromethyl)phenol], the IC50 is 5 to 50 nM.

Take `Cc1cc(N[C@@H]2CCCN(CC(=O)N3CCC4(CC3)CNC4)C2)nnc1-c1ccc(C(F)(F)F)cc1O` [Example 102, (R)-2-(3-((6-(2-Hydroxy-4-(trifluoromethyl)phenyl)-5-methylpyridazin-3-yl)amino)piperidin-1-yl)-1-(2,7-diazaspiro[3.5]nonan-7-yl)ethan-1-one]: the half-inhibitory concentration (IC50) lay in the range of 50 to 500 nM.

With `Cc1cc(N[C@@H]2CCCN(C[C@H]3CCCN3)C2)nnc1-c1ccc(C(F)(F)F)cc1O` [Example 107, 2-(4-Methyl-6-(((R)-1-(((R)-pyrrolidin-2-yl)methyl)piperidin-3-yl)amino)pyridazin-3-yl)-5-(trifluoromethyl)phenol], the IC50 fell in the range of 5 to 50 nM.

With `Cc1cc(N[C@@H]2CCCN(CCN)C2)nnc1-c1ccc(C(F)(F)F)cc1O` [Example 78, (R)-2-(6-((1-(2-Aminoethyl)piperidin-3-yl)amino)-4-methylpyridazin-3-yl)-5-(trifluoromethyl)phenol], the IC50 was less than 5 nM.

Still in this test, the particulars now being: read-out: IL-1β IC50; Table 3; PMA-differentiated U937 cells, 1 μg/mL LPS 3 h, compound 30 min, 10 mM nigericin 1 h.
For the molecule `Cc1cc(N[C@@H]2CCCN(CC(=O)N(C)[C@H]3CC[C@H](O)CC3)C2)nnc1-c1ccc(C(F)(F)F)cc1O` [Compound 18, 2-((R)-3-((6-(2-Hydroxy-4-(trifluoromethyl)phenyl)-5-methylpyridazin-3-yl)amino)piperidin-1-yl)-N-((1r,4R)-4-hydroxycyclohexyl)-N-methylacetamide], the concentration for half-maximal inhibition (IC50) was 5 to 50 nM.

As to `Cc1cc(N[C@@H]2CCCN(C3CCN(C4CCC(O)CC4)CC3)C2)nnc1-c1ccc(C(F)(F)F)cc1O` (single isomer, unassigned) [Example 39B], the half-inhibitory concentration (IC50) lay within 5 to 50 nM.

In the case of `Cc1cc(N[C@@H]2CCCN(C3CCC(O)CC3)C2)nnc1-c1ccc(C(F)(F)F)cc1O` (single isomer, unassigned) [Example 54], the IC50 was less than 5 nM.
